Tested on: lateral aspect of the hippocampus
Assay: MRgFUS + microbubbles + QA lesion study in rats, followed by T2-TSE MR imaging
Assay type: in vivo, Male Sprague Dawley rats
Settings: rat, QA 0.06 mmol (1 ml of 10 mg/ml) intraperitoneally once per day for 4 days beginning 2 days prior to insonification, saline-treated animals normal
Experimental: An illustrative example is described below, concerning a study of techniques herein as applied to a particular subject. Male Sprague Dawley rats (e.g., 5-6 weeks of age (120-150 g)), were divided into two groups receiving the following treatments: 1) MRgFUS+microbubbles+saline (n=5), or 2) MRgFUS+microbubbles+QA (n=5). QA was dissolved in 0.1M PBS (10 mg/ml). Either 1 ml of the QA solution (0.06 mmol) or 1 ml of saline was injected intraperitoneally once per day for 4 days beginning 2 days prior to insonification. Phospholipid encapsulated microbubbles (mean size: ˜5 um; concentration: 6×10^8 microbubbles/ml; volume injected: 300 μl/kg) and Gadodiamide contrast (Omniscan, 0.2 ml/kg) were delivered via the tail vein just prior to sonification.
An acoustic energy delivery system was configured in a manner similar to that discussed above as in system 100 and in this illustrative example, the system included an MR-compatible, pre-focused, 8-element annular array comprising 1.5 MHz transducers 111 (e.g., having spherical radius=20 mm±2 mm, active diameter=25 mm [focal ratio=0.8]; an ultrasonic transducer with 80% electric-acoustic efficiency, which was connected to a phased array generator and RF power amplifier. An MR-compatible motorized positioning stage was used to move the transducer in the rostral-caudal and medial-lateral directions. […]

For `O=C(O)c1cccnc1C(=O)O` [QA, quinolinic acid], which “T2-TSE imaging appearance of brain, 24 hours post-insonification” value (24 hours post-insonification) is on record?
Its value is “exhibited hyperintensity in the area of insonification”.

And the “T2-TSE imaging appearance of brain, 7 days post-insonification” value (7 days post-insonification, no evidence of a lesion)?
The value was “exhibited signs of damage in the region of insonification”.
